According to patent EP4467141A1, “PYRAZOLO-QUINOLINES AS SELECTIVE INHIBITORS OF GENOTOXIC STRESS-INDUCED IKK/NF- KB PATHWAYS FOR CANCER THERAPY” (Max-Delbrück-Centrum für Molekulare Medizin in der …, priority 2023, dated 2024):

Legend:
Experiment in all cases: Kinase panel study
Type in all cases: biochemical
Conditions in all cases: read-out: Percentage of inhibition; for inhibition at 1 µM: 1000nM; for inhibition at 10 µM: 10000nM
[1] = molecular target: T1, EPHA1 (Homo sapiens, UniProt P21709)
T1 construct: purchased Thermo Fisher Scientific
T1 sequence (P21709 26-976): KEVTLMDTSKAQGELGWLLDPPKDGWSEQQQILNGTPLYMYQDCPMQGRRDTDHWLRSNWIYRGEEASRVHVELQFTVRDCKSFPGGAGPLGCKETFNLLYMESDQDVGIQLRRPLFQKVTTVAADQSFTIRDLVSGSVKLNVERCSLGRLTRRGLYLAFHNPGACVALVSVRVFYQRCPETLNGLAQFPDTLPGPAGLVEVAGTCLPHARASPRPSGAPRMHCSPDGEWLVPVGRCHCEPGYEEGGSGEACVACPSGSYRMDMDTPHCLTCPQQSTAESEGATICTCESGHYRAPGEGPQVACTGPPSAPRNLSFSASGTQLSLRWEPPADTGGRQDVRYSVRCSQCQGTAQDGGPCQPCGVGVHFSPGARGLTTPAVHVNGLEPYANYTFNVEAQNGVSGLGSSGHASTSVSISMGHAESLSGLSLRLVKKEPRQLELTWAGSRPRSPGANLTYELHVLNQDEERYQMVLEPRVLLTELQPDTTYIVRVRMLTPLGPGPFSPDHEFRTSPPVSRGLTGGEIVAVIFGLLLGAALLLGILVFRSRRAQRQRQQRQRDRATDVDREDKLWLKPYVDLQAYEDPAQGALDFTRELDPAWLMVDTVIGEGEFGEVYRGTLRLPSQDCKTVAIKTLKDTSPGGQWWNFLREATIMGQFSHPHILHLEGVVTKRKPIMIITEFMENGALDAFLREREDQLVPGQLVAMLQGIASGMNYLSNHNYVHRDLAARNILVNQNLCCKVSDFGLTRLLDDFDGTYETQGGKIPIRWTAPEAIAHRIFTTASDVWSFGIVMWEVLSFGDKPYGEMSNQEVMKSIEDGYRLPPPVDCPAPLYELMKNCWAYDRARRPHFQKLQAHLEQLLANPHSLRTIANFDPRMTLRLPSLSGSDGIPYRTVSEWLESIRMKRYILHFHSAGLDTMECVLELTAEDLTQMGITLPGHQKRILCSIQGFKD
In short: (§1)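 ZLyte/Adapta biochemical kinase assays, standard operating procedures; % inhibition at 1 µM or 10 µM test compound; IC50 determined in panel.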

[2] = molecular target: T2, PRKCH (PKC eta) (Homo sapiens, UniProt P24723)
T2 construct: purchased Thermo Fisher Scientific
T2 sequence (P24723 whole entry): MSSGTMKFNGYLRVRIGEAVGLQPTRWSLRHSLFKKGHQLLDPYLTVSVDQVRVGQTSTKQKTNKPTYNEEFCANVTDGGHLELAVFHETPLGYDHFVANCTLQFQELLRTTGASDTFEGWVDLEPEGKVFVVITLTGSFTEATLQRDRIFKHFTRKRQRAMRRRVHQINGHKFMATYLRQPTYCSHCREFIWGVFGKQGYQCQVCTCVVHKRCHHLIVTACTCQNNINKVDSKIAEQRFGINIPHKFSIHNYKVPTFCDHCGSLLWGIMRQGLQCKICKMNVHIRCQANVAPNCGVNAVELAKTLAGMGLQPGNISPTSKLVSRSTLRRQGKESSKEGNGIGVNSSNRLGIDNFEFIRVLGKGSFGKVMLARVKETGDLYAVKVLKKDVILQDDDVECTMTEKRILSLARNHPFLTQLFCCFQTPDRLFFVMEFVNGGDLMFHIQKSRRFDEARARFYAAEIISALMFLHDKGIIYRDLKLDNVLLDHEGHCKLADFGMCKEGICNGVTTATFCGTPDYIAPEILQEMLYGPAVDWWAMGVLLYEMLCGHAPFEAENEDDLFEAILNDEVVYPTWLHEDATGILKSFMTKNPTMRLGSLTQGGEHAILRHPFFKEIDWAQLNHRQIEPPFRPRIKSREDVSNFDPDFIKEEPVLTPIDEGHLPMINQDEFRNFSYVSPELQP
In short: as §1

[3] = molecular target: T3, AXL (Homo sapiens, UniProt P30530)
T3 construct: purchased Thermo Fisher Scientific
T3 sequence (P30530 26-894): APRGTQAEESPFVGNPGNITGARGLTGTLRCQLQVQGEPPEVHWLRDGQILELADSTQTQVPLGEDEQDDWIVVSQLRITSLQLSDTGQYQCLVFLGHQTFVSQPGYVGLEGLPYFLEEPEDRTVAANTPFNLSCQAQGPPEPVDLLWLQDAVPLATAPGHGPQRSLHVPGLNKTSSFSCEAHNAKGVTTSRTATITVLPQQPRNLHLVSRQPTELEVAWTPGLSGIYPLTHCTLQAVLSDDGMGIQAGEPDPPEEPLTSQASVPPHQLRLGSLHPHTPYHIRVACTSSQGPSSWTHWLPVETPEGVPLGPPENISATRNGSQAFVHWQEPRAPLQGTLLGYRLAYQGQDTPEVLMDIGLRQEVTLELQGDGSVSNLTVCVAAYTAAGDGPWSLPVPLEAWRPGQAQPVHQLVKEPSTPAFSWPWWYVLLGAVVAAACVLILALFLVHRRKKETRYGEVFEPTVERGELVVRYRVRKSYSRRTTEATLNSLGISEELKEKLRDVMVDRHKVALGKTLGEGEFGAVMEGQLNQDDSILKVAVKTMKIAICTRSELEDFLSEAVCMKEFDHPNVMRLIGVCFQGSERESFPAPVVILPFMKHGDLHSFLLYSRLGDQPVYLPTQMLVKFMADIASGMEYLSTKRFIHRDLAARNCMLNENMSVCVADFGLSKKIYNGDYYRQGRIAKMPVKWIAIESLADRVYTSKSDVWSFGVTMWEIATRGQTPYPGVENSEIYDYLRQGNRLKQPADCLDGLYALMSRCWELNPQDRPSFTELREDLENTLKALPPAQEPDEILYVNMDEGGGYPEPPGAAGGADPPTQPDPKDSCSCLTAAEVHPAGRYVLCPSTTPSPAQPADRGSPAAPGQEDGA
In short: as §1

[4] = molecular target: T4, CDK1/cyclin B (Homo sapiens, UniProt P06493)
T4 construct: purchased Thermo Fisher Scientific
T4 sequence (P06493 whole entry): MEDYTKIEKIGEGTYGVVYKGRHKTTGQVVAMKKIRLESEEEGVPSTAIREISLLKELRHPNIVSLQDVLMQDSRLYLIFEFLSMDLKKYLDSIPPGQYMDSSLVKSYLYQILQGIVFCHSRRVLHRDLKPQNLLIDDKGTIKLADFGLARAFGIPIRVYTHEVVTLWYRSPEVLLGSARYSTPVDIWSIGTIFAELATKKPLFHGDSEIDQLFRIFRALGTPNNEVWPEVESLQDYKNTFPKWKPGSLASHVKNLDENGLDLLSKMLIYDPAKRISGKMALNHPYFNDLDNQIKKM
T4 sequence (P14635 whole entry partner): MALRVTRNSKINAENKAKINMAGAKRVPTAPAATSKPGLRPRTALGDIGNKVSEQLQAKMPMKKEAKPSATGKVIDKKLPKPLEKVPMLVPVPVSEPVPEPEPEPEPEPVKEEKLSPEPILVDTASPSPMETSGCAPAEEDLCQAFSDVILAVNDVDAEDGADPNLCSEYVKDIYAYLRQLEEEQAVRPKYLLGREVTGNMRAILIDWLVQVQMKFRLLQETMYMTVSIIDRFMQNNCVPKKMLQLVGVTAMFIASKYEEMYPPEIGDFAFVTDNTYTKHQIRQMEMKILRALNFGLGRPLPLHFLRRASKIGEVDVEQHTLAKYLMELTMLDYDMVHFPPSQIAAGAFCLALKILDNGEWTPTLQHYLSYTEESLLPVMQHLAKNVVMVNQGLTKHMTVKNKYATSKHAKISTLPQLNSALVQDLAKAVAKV
In short: as §1

[5] = molecular target: T5, FRK (PTK5) (Homo sapiens, UniProt P42685)
T5 construct: purchased Thermo Fisher Scientific
T5 sequence (P42685 whole entry): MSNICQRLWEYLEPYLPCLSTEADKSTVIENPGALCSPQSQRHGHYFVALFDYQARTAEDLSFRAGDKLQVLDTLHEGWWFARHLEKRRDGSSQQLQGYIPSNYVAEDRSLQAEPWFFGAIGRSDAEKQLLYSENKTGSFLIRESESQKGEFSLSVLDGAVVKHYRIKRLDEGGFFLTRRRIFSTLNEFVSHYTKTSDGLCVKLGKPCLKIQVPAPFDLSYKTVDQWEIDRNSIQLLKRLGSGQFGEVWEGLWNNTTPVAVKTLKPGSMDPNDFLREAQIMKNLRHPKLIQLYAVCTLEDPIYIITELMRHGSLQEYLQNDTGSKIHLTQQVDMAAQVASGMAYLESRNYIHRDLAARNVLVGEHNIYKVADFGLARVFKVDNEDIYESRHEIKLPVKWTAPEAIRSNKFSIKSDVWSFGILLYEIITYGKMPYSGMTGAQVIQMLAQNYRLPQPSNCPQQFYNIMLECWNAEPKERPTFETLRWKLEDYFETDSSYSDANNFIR
In short: as §1

[6] = molecular target: T6, MARK1 (MARK) (Homo sapiens, UniProt Q9P0L2)
T6 construct: purchased Thermo Fisher Scientific
T6 sequence (Q9P0L2 whole entry): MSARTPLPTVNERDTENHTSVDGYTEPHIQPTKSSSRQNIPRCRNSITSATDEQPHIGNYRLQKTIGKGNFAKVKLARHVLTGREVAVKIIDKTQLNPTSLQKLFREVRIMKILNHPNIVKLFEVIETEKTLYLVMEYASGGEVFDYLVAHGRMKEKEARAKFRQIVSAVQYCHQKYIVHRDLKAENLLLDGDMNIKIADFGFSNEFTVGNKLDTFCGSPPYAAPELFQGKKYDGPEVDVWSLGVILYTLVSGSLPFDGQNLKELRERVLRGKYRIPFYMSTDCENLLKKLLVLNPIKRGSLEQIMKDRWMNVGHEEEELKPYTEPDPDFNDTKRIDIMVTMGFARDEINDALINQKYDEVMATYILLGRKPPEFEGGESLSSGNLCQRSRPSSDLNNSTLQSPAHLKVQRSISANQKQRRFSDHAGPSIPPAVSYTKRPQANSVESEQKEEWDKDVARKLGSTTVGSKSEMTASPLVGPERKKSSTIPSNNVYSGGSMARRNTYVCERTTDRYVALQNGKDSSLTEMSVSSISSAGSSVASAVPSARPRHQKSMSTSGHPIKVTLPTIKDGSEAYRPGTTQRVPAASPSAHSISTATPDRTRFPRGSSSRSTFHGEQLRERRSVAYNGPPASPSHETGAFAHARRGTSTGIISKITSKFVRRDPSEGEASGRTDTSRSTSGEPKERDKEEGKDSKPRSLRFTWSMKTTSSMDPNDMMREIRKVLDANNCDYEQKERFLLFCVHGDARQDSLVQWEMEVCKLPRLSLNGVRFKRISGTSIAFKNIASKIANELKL
In short: as §1

[7] = molecular target: T7, CSNK1G1 (CK1 gamma 1) (Homo sapiens, UniProt Q9HCP0)
T7 construct: purchased Thermo Fisher Scientific
T7 sequence (Q9HCP0 whole entry): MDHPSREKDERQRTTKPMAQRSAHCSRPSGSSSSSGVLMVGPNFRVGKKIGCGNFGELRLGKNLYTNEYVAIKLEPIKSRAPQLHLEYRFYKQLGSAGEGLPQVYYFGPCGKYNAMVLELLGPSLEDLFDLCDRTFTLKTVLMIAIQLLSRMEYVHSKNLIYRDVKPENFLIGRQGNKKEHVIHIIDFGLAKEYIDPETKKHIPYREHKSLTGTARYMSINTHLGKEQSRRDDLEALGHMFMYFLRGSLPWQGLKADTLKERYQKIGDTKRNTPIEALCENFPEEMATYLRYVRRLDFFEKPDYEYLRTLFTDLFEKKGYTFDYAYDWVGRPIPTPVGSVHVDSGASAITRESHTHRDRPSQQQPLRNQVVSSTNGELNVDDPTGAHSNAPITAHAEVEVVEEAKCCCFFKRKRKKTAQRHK
In short: as §1

SMILES: COc1ccc2c(c1OC)c(=O)n1c3ccc(O)cc3c3ccnc2c31 [MW01, 5-Hydroxy-10,11-dimethoxy-9H-benzo[c]indolo[3,2,1-ij][1,5]naphthyridin-9-one]
- inhibition at 1 µM [1]: 9%
- inhibition at 10 µM [1]: 16%
- inhibition at 1 µM [2]: 1%
- inhibition at 10 µM [2]: 7%
- inhibition at 1 µM [3]: 51%
- inhibition at 10 µM [3]: 80%
- inhibition at 1 µM [4]: 20%
- inhibition at 10 µM [4]: 46%
- inhibition at 1 µM [5]: 15%
- inhibition at 10 µM [5]: 22%
- inhibition at 1 µM [6]: 4%
- inhibition at 10 µM [6]: 6%
- inhibition at 1 µM [7]: 5%
- inhibition at 10 µM [7]: 12%

SMILES: COc1ccc2cc3c(N)nn(C(=O)c4cccc(N(C)C)c4)c3nc2c1 [MW05, (3-Amino-7-methoxypyrazolo[3,4-b]quinolin-1-yl)-[3-(dimethylamino)phenyl]methanone]
- inhibition at 1 µM [1]: 11%
- inhibition at 10 µM [1]: -5%
- inhibition at 1 µM [2]: -3%
- inhibition at 10 µM [2]: -9%
- inhibition at 1 µM [3]: 4%
- inhibition at 10 µM [3]: -8%
- inhibition at 1 µM [4]: 19%
- inhibition at 10 µM [4]: 57%
- inhibition at 1 µM [5]: 9%
- inhibition at 10 µM [5]: 6%
- inhibition at 1 µM [6]: 3%
- inhibition at 10 µM [6]: -5%
- inhibition at 1 µM [7]: 3%
- inhibition at 10 µM [7]: 6%
